According to PMC6738096 (British Journal of Cancer, 2019):
Like-named read-outs stand apart in the source and are kept apart here.

Legend:
[1] = Telemetered dog cardiovascular study; assay type: in vivo
Experimental: Potential in vivo effects on the respiratory, central nervous and cardiovascular systems were evaluated in oral dose studies in rats and dogs.

hERG [2] = biological target: T1, hERG (Homo sapiens, UniProt Q12809); assay: hERG channel functional assay; assay type: biochemical; conditions: read-out: IC50, inhibition of the hERG channel, functional assay
[3] = Phase 1 trial: plasma pharmacokinetics of TSR-011 IR (LC-MS/MS, noncompartmental analysis); assay type: in vivo, human
Experimental: To evaluate PK and establish the RP2D, blood samples were collected from all patients in the phase 1 dose-escalation trial at daily doses of 30–480 mg.
Plasma samples were processed through a Biotage (Uppsala, Sweden) ISOLUTE SLE + 200 μL of a 96-well-supported liquid extraction plate. […] The validated range was 0.87–433.25 nmol/L. The assay interbatch precision, expressed as percent coefficients of variation, ranged from 6.6 to 11.7%, and the interbatch accuracy, expressed as percent bias, ranged from –4.7 to 0.5%.
PK parameters were calculated using noncompartmental analysis (Phoenix WinNonlin version 7.0, Pharsight Corporation, Mountain View, CA, USA).

hERG [4] = biological target: T1, hERG; assay: hERG in vitro test, displacement of dofetilide binding
[5] = Plasma exposure in mice of the Karpas-299 study
CYP2D6 = CYP2D6 (Homo sapiens, UniProt P10635); assay: biochemical
CYP3A4 = CYP3A4 (Homo sapiens, UniProt P08684); assay: biochemical
[6] = Experimental: During the phase 1 trial, all patients were monitored by ECGs as part of safety evaluations. […] Cardiac function (QT, Bazett-corrected QT formula, Fridericia-corrected QT formula [QTcF], PR, QRS, RR and heart rate) was evaluated by a 12-lead ECG with triplicate readouts at scheduled time points, along with changes from baseline to each scheduled time point.
All the ΔQTcF data with matching drug concentration values were used for the analysis.

hNav1.5 = biological target: T2, hNav1.5 (Homo sapiens, UniProt Q14524); assay: hNav1.5 expressed in HEK-293 cells; assay type: cell-based; conditions: read-out: IC50 against hNav1.5
T2 construct: expressed in transfected cells; host or cells: HEK-293

[7] = single dose, over the 16-fold increase in dose (30–480 mg)
[8] = steady state, over the sixfold increase in dose (80–480 mg)

T1 sequence (Q12809 whole entry): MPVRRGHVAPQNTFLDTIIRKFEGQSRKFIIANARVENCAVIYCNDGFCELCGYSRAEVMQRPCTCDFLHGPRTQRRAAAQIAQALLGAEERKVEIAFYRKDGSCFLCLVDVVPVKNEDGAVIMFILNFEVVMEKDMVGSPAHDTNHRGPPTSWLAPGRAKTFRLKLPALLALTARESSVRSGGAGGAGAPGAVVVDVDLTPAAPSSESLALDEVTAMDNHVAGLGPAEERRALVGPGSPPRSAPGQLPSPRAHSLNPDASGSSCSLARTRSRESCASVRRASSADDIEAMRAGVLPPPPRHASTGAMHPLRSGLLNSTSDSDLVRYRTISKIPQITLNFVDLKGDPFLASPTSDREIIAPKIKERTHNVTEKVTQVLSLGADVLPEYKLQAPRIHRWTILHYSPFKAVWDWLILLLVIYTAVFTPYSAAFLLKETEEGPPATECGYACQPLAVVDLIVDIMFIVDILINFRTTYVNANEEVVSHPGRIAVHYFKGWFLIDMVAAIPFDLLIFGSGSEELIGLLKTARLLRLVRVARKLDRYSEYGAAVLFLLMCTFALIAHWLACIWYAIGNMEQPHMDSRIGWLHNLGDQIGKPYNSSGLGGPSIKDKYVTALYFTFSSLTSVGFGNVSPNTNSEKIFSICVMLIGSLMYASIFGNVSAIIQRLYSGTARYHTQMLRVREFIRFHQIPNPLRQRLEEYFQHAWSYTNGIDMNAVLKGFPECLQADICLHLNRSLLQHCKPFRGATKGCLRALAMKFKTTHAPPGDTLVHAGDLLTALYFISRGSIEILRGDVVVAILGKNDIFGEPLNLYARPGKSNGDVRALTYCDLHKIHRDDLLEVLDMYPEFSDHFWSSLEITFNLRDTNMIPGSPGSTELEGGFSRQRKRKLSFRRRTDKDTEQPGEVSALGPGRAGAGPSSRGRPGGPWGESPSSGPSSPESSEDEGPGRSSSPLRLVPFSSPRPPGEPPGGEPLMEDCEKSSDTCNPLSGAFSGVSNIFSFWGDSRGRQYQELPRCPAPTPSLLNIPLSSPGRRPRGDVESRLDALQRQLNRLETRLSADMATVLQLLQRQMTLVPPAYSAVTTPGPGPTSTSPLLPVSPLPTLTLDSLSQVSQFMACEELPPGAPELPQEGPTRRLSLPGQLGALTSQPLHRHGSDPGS
T2 sequence (Q14524 whole entry): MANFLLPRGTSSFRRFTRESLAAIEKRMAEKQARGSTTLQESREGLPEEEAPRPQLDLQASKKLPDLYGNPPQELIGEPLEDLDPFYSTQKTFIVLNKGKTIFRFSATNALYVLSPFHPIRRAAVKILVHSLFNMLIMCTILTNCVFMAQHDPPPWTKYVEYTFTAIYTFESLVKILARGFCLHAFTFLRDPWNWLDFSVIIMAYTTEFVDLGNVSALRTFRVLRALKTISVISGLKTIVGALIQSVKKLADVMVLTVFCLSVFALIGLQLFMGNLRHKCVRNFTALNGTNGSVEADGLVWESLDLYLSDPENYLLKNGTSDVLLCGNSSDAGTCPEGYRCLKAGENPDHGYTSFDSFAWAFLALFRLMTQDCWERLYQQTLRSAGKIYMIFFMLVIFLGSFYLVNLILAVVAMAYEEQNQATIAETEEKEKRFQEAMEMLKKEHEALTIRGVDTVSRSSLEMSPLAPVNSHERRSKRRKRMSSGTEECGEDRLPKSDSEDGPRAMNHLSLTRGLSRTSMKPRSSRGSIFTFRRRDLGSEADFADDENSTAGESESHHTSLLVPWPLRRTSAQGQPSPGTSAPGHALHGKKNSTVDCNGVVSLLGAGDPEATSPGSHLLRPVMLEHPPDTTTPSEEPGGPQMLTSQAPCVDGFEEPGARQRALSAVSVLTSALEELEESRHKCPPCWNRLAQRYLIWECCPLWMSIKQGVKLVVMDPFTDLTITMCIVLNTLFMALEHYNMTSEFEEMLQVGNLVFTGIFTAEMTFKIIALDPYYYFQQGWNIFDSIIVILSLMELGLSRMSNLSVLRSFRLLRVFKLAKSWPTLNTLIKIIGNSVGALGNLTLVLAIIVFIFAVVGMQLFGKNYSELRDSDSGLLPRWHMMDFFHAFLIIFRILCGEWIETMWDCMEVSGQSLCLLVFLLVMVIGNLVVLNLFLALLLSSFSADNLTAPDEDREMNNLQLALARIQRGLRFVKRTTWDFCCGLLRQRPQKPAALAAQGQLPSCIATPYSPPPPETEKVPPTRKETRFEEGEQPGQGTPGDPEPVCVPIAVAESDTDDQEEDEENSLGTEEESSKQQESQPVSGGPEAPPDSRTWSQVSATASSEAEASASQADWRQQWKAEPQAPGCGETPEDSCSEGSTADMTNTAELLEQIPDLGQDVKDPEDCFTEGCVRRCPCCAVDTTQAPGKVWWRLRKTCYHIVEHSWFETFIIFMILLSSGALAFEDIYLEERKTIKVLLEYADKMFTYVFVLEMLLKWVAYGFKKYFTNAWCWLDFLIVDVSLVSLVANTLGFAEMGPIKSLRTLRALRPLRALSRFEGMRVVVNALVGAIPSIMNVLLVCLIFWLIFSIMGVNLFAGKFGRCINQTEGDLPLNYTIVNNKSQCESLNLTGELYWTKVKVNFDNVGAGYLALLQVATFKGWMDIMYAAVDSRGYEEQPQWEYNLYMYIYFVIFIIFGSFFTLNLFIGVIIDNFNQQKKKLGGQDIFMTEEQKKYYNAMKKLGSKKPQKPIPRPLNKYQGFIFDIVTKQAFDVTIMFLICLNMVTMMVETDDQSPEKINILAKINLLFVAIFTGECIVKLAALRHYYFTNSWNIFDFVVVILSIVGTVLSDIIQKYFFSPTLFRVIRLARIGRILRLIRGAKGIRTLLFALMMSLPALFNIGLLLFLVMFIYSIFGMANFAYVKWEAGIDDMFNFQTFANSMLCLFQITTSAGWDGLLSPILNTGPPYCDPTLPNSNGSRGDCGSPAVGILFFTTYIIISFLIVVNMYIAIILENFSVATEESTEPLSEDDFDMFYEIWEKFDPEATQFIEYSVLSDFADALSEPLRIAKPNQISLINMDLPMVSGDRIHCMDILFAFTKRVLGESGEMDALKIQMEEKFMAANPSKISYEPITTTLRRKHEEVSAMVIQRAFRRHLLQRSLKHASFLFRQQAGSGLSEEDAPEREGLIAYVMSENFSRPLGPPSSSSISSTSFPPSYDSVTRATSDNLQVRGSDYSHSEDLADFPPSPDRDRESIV
CYP2D6, sequence (P10635 whole entry): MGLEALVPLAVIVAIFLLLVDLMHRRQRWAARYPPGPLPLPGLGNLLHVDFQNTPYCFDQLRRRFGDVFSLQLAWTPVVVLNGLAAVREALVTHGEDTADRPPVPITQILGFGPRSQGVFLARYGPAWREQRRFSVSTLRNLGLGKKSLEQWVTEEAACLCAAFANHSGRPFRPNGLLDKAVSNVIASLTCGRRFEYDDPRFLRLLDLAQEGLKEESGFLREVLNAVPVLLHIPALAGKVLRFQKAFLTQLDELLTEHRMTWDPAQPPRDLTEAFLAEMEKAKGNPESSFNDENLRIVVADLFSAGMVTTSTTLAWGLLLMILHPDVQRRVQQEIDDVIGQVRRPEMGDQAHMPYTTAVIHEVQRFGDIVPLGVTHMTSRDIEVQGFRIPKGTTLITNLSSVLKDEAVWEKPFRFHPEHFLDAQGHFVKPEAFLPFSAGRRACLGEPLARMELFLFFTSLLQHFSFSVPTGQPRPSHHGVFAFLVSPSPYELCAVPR
CYP3A4, sequence (P08684 whole entry): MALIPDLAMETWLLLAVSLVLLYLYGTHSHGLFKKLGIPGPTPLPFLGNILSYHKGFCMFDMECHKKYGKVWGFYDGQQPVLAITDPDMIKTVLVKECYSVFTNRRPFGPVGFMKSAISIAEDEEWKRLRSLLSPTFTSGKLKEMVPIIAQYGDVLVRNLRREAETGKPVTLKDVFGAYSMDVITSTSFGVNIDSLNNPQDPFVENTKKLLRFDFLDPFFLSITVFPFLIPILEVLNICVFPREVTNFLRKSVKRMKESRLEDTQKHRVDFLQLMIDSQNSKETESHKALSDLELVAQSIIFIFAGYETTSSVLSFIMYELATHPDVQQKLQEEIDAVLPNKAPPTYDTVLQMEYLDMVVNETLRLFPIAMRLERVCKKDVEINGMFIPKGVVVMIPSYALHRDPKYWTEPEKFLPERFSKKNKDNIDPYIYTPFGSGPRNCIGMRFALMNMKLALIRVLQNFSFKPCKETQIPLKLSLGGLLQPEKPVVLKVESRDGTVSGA

For `CC(C)NC(=O)[C@H]1CC[C@@H](n2c(NC(=O)c3ccc(F)cc3)nc3ccc(CN4CCC(C(C)(C)O)CC4)cc32)CC1` [TSR-011], the “Reversibility of cardiovascular parameters” value ([1]; oral 3, 10 and 15 mg/kg) was “returned to normal by the subsequent dose”, the PR interval ([1]; oral doses of 3, 10 and 15 mg/kg) was “dose-dependent prolongation of the PR interval” and the Body temperature ([1]; oral, at 15 mg/kg) was “mild and transient increase in body temperature”. For the same compound, the QRS duration ([1]; oral, at 10 and 15 mg/kg) was “small and dose-dependent increase in QRS duration”, the Heart rate ([1]; oral, at ≥ 3 mg/kg) was “Increased heart rate” and the QTc ([1]; oral, at ≥ 3 mg/kg) was “prolonged QTc”. The Pulse pressure ([1]; oral, at ≥ 10 mg/kg) was “decreased pulse pressure”, the IC50 (hERG [2]) was 0.172 µM and the Highest concentration observed ([3]; 40-mg IR TID cohort) was 2599.50 nmol/L. For the same compound, the “Mean Ctrough” value ([3]; 40-mg TID (Q8h), steady state day 29) was 351.38 nM, the Cmax at 696 h ([3]; human, plasma, po, 40-mg TID (Q8h), steady state day 29) was 528 nM and the half-life ([3]; human, plasma, po, cycle 1/day 1, across cohorts) was 7 to 27 h. It also gave a Vd/F ([3]; human, plasma, po, cycle 1/day 1, across cohorts, read-out: Apparent volume of distribution) of 188 to 1620 L, a Cmax ([3]; human, plasma, cycle 2/day 1, daily oral 80–480 mg) of 447 to 3330 nM and a Tmax ([3]; human, plasma, cycle 2/day 1, daily oral 80–480 mg, read-out: Median tmax) of 2 to 6 h. The “Increase in geometric mean AUC from 0 to 24 h” value [3, 7] was 42 fold, the “Increase in geometric mean Cmax” value [3, 7] was 41 fold and the “Increase in exposure for AUC from time 0 to the last measurable concentration” value [3, 8] was 2.9 fold. The “Increase in exposure for Cmax” value [3, 8] was 3.3 fold, the IC50 (hERG [4]) was 2.3 µM and the “Overall 24-h exposure” value ([5]; oral daily dosing of 60 mg/kg) was 15,500 ng×h/mL. For the same compound, the Plasma concentration ([5]; oral dose 60 mg/kg, at 8 h) was 698.00 nM, the IC50 (CYP2D6) was 32.9 µM and the IC50 (CYP3A4) was 23.3 µM. For the same compound, the “Mean ΔQTcF” value ([6]; 120 mg QD (n = 1)) was 19 ms, the “Upper bound of the two-sided 90% CI of mean ΔQTcF” value ([6]; 120 mg QD (n = 1)) was 27 ms and the “Frequency of drug-related QTc prolongation” value ([6]; 40-mg TID (Q8h) RP2D) was 9.7%. For the same compound, the “Patients with ΔQTc of > 60 ms and QTc > 500 ms (grade 3 event)” value ([6]; 40-mg TID (Q8h), one in 27 patients) was 3.7%, the “Mean ΔQTcF” value ([6]; 40-mg TID cohort (n = 27), 90% CI 9.75–12.00 ms) was 11 ms and the ΔQTcF ([6]; QD doses at 240 mg (n = 3), 320 mg (n = 3) and 480 mg (n = 4)) was over 20 ms. For the same compound, the “Slope of linear regression, plasma concentration versus ΔQTcF” value ([6]; all dose groups, 95% CI 0.01970–0.02747, P < 0.0001) was 0.02358, the “Mean ΔQTcF” value ([6]; fractionated BID (Q12h) and TID (Q8h) regimens, cumulative daily doses of 60 and 120 mg, all four regimens) was “below 20 ms” and the “Frequency of drug-related QTc prolongation” value ([6]; overall safety population) was 16.7%. For the same compound, the IC50 (hNav1.5) was 7.6 µM.
